From patent US8242151B2, “Tricyclic compounds” (Kyowa Hakko Kirin Co., Ltd., priority 2007, dated 2012)

Columns and labels:
[1] = biological target: T1, GAL4-PPARγ chimeric nuclear receptor (human PPARγ ligand binding region) (Homo sapiens, UniProt P37231); assay: Transactivation assay of PPARγ by transient gene transfer (GAL4-PPARγ luciferase reporter); assay type: cell-based; details: HEK293EBNA cells, 24 hr; concentration showing 50% of efficacy; activity relative to pioglitazone 10 μmol/L = 100%
T1 construct: expressed in transfected cells; host or cells: HEK293EBNA cells
T1 sequence (P37231 174-475 isoform P37231-2): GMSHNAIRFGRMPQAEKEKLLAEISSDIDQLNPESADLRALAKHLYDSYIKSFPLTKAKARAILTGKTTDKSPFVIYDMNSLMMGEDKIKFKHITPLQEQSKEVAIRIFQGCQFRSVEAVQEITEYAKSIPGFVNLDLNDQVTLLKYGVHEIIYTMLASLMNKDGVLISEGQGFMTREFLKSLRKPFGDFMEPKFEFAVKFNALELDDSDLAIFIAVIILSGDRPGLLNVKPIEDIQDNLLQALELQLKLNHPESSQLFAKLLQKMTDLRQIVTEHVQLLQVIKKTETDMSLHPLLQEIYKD
Method: The agonist activity of compound (I) to PPARγ was determined by a transactivation assay method using a chimeric nuclear receptor of a DNA binding region of a yeast transcription factor GAL4 and a PPARγ ligand binding region. Specifically, the PPARγ agonist activity of compound (I) was evaluated by the following method based on the method of Lehmann et al. (J Biol. Chem., 1995, vol. 270, page 12953).
HEK293EBNA cells cultured in Dulbecco's Modified Eagle medium (Invitrogen) containing 10 v/v % fetal calf serum (Invitrogen) were used. 30 mL of the above-mentioned cells (density: 1×10^5 cells/mL) were inoculated in a […] culture dish (Iwaki Glass), and cultured overnight. Using SuperFect Transfection Reagent (QIAGEN), a plasmid expressing a GAL4-PPARγ chimeric nuclear receptor fusing 174-475 amino acids, which are human PPARγ ligand binding region, and 1-147 amino acids, which are GAL4 DNA binding region, and a reporter plasmid expressing a GAL4 responsive luciferase were transiently introduced into the cells at a proportion of 4:1. After 5 hr from gene introduction, the cells were detached from the culture dish, and the detached cells (density: 2×10^4 cells/mL) were inoculated by 100 μL in each well of a 96 well white plate (SUMITOMO BAKELITE), and cultured overnight. The medium was removed, compound (I) diluted in various concentrations with serum-free Dulbecco's Modified Eagle medium was added by 100 μL, and the mixture was reacted under a 5% carbon dioxide gas stream (5% CO2) at 37° C. for 24 hr. On the other hand, as a positive control, 10 μmol/L of pioglitazone (100 μL) was added, and the mixture was reacted under a 5% carbon dioxide gas stream (5% CO2) at 37° C. for 24 hr. As a substrate of luciferase, 100 μL of Steady-Glo (Promega) was added to each well and the mixture was thoroughly stirred. Immediately thereafter, the chemical luminescence due to luciferase was measured using TopCount NTX (Packard).
The agonist activity (activity rate (%)) of compound (I) to PPARγ was calculated according to the following formula, as a relative activity when the agonist activity on addition of pioglitazone (10 μmol/L) was 100%.

[2] = test system: spontaneously hypertensive rats (SHR); assay: Antihypertensive action by telemetry method; assay type: in vivo, rat; details: oral once a day for 4 days, 24 hr averages
Text: A telemetry transmitter was indwelled in the abdominal artery of spontaneously hypertensive rats (SHR), and the blood pressure and heart rate were monitored. The rats were acclimated and reared for 4 weeks or more, and only the rats with hypertension were used for the test. Before drug administration, the rats were grouped such that the blood pressure and heart rate of each rat would be of the same levels between the groups. A solvent (0.5% methylcellulose solution) and a test compound were repeatedly administered orally once a day for 4 days. The average systolic blood pressure for 24 hr, average diastolic blood pressure for 24 hr and average heart rate for 24 hr were calculated on each administration day.

[3] = test system: spontaneously hypertensive rats (SHR); assay: Antihypertensive action by tail cuff method; assay type: in vivo, rat; details: oral once a day for 7 days, about 4 to 9 hr after final administration
Method: 18- to 22-week-old spontaneously hypertensive rats (SHR) were used.
Before drug administration, the body weight, blood pressure and heart rate of each rat were measured, and the rats were grouped such that these values are almost the same between groups. A solvent (0.5% methylcellulose solution) and a test compound were repeatedly administered orally once a day for 7 days. At about 4 to 9 hr after the final administration, systolic blood pressure and heart rate were non-invasively measured according to the following.
The rats were placed in a cylindrical restrainer, heated to 37° C., and blood pressure and heart rate were measured under resting state using a Tail Cuff Method. For the measurement, a non-invasive blood pressure measurement apparatus (PS-600, Riken Kaihatsu, Tokyo) was used. The blood pressure and heart rate of each rat was measured 5 times, and the average was taken as the value of each rat.

Row | EC50 [1] | SMILES | antihypertensive action (blood pressure, telemetry) [2] | antihypertensive action (systolic blood pressure, tail cuff) [3]
1 | 1020 nM | CCc1nc2c(C)ccnc2n1Cc1ccc2c(c1)CCc1ccccc1/C2=C(/C)c1noc(=O)[nH]1 [Compound 42, (E)-2-(2-ethyl-7-methyl-3H-imidazo[4,5-b]pyridin-3-yl)methyl-5-[1-(5-oxo-4,5-dihydro-1,2,4-oxadiazol-3-yl)ethylidene]-10,11-dihydro-5H-dibenzo[a,d]cycloheptene] | antihypertensive action | antihypertensive action
2 | 527 nM | C/C(=C1/c2ccccc2CCc2cc(Cn3c(C4CC4)nc4c(Cl)ccnc43)ccc21)c1noc(=O)[nH]1 [Compound 95, (E)-2-(7-chloro-2-cyclopropyl-3H-imidazo[4,5-b]pyridin-3-yl)methyl-5-[1-(5-oxo-4,5-dihydro-1,2,4-oxadiazol-3-yl)ethylidene]-10,11-dihydro-5H-dibenzo[a,d]cycloheptene] | antihypertensive action | antihypertensive action
3 | – | C/C(=C1\c2ccc(Cn3c(C4CC4)nc4c(Cl)ccnc43)cc2COc2ccccc21)c1noc(=O)[nH]1 [Compound 139, (Z)-8-(7-chloro-2-cyclopropyl-3H-imidazo[4,5-b]pyridin-3-yl)methyl-11-[1-(5-oxo-4,5-dihydro-1,2,4-oxadiazol-3-yl)ethylidene]-6,11-dihydrodibenzo[b,e]oxepine] | – | antihypertensive action
4 | 326 nM | CCc1nc2c(C)cc(C)nc2n1Cc1ccc2c(c1)CCc1ccccc1/C2=C\c1noc(=O)[nH]1 [Compound 29, (E)-2-(2-ethyl-5,7-dimethyl-3H-imidazo[4,5-b]pyridin-3-yl)methyl-5-(5-oxo-4,5-dihydro-1,2,4-oxadiazol-3-yl)methylene-10,11-dihydro-5H-dibenzo[a,d]cycloheptene] | antihypertensive action | antihypertensive action
5 | 611 nM | CCc1nc2c(Cl)cc(C)nc2n1Cc1ccc2c(c1)COc1ccccc1/C2=C(/C)c1noc(=O)[nH]1 [Compound 129, (Z)-8-(7-chloro-2-ethyl-5-methyl-3H-imidazo[4,5-b]pyridin-3-yl)methyl-11-[1-(5-oxo-4,5-dihydro-1,2,4-oxadiazol-3-yl)ethylidene]-6,11-dihydrodibenzo[b,e]oxepine] | antihypertensive action | –
6 | 305 nM | CCc1nc2c(C)cc(C)nc2n1Cc1ccc2c(c1)CCc1ccccc1/C2=C\c1nnn[nH]1 [Compound S16, (E)-2-(2-ethyl-5,7-dimethyl-3H-imidazo[4,5-b]pyridin-3-yl)methyl-5-(1H-tetrazol-5-yl)methylene-10,11-dihydro-5H-dibenzo[a,d]cycloheptene] | antihypertensive action | –
7 | 226 nM | C/C(=C1\c2ccc(Cn3c(C4CC4)nc4c(Cl)cccc43)cc2COc2ccccc21)c1noc(=O)[nH]1 [Compound 147, (Z)-8-(4-chloro-2-cyclopropylbenzimidazol-1-yl)methyl-11-[1-(5-oxo-4,5-dihydro-1,2,4-oxadiazol-3-yl)ethylidene]-6,11-dihydrodibenzo[b,e]oxepine] | antihypertensive action | –
8 | 1090 nM | CCc1nc2c(C)cc(C)nc2n1Cc1ccc2c(c1)CCc1ccccc1/C2=C(/C)c1nnn[nH]1 [Compound 45, (E)-2-(2-ethyl-5,7-dimethyl-3H-imidazo[4,5-b]pyridin-3-yl)methyl-5-[1-(1H-tetrazol-5-yl)ethylidene]-10,11-dihydro-5H-dibenzo[a,d]cycloheptene] | antihypertensive action | –
9 | 336 nM | CCOc1nc2c(Cl)cccc2n1Cc1ccc2c(c1)COc1ccccc1/C2=C(/C)c1noc(=O)[nH]1 [Compound 146, (Z)-8-(4-chloro-2-ethoxybenzimidazol-1-yl)methyl-11-[1-(5-oxo-4,5-dihydro-1,2,4-oxadiazol-3-yl)ethylidene]-6,11-dihydrodibenzo[b,e]oxepine] | antihypertensive action | –
10 | 1250 nM | CCc1nc2c(C)cc(C)nc2n1Cc1ccc2c(c1)CCc1ccccc1C2=CC#N [Compound S15, [2-(2-ethyl-5,7-dimethyl-3H-imidazo[4,5-b]pyridin-3-yl)methyl-10,11-dihydro-5H-dibenzo[a,d]cyclohepten-5-ylidene]acetonitrile] | antihypertensive action | –
11 | 323 nM | CCOc1nc2c(C)cc(C)nc2n1Cc1ccc2c(c1)CCc1ccccc1/C2=C(/C)c1noc(=O)[nH]1 [Compound 86, (E)-2-(2-ethoxy-5,7-dimethyl-3H-imidazo[4,5-b]pyridin-3-yl)methyl-5-[1-(5-oxo-4,5-dihydro-1,2,4-oxadiazol-3-yl)ethylidene]-10,11-dihydro-5H-dibenzo[a,d]cycloheptene] | antihypertensive action | –
12 | 550 nM | CCOc1nc2c(Cl)ccnc2n1Cc1ccc2c(c1)COc1ccccc1/C2=C(/C)c1noc(=O)[nH]1 [Compound 138, (Z)-8-(7-chloro-2-ethoxy-3H-imidazo[4,5-b]pyridin-3-yl)methyl-11-[1-(5-oxo-4,5-dihydro-1,2,4-oxadiazol-3-yl)ethylidene]-6,11-dihydrodibenzo[b,e]oxepine] | antihypertensive action | –
13 | 1000 nM | CCc1nc2c(C)cc(C)nc2n1Cc1ccc2c(c1)CCc1ccccc1N2C(C)c1nnn[nH]1 (stereo not drawn) [Compound 22, 2-(2-ethyl-5,7-dimethyl-3H-imidazo[4,5-b]pyridin-3-yl)methyl-5-[1-(1H-tetrazol-5-yl)ethyl]-10,11-dihydro-5H-dibenzo[b,f]azepine] | antihypertensive action | –
14 | 233 nM | CCc1nc2c(Cl)cc(C)nc2n1Cc1ccc2c(c1)CCc1ccccc1N2C(C)c1nnn[nH]1 (stereo not drawn) [Compound 25, 2-(7-chloro-2-ethyl-5-methyl-3H-imidazo[4,5-b]pyridin-3-yl)methyl-5-[1-(1H-tetrazol-5-yl)ethyl]-10,11-dihydro-5H-dibenzo[b,f]azepine] | antihypertensive action | –
15 | 235 nM | Cc1cc(C)c2nc(C3CC3)n(Cc3ccc4c(c3)CCc3ccccc3N4C(C)c3nnn[nH]3)c2n1 (stereo not drawn) [Compound 71, 2-(2-cyclopropyl-5,7-dimethyl-3H-imidazo[4,5-b]pyridin-3-yl)methyl-5-[1-(1H-tetrazol-5-yl)ethyl]-10,11-dihydro-5H-dibenzo[b,f]azepine] | antihypertensive action | –
16 | – | CCc1nc2c(C)ccnc2n1Cc1ccc2c(c1)CCc1ccccc1N2C(C)c1nnn[nH]1 (stereo not drawn) [Compound 26, 2-(2-ethyl-7-methyl-3H-imidazo[4,5-b]pyridin-3-yl)methyl-5-[1-(1H-tetrazol-5-yl)ethyl]-10,11-dihydro-5H-dibenzo[b,f]azepine] | – | antihypertensive action
